Tested on: streptozotocin-induced diabetic model
Experiment: Test Example 3: sucrose loading in streptozotocin-induced diabetic model, plasma glucose (GLU)
Type: in vivo, rat
Conditions: STZ rats; for GLU concentration before loading: Day 23, after oral once a day for 9 days, plasma glucose; for GLU concentration before loading / GLU concentration after loading / Rate of Change (GLU concentration after loading relative to before loading): metformin 50 mg/kg, voglibose 0.2 mg/kg, fenofibrate 50 mg/kg; for GLU concentration after loading: Day 24, 60 minutes after sucrose 2.5 g/kg oral given immediately after test article; for blood sugar level change by the sucrose loading (in words) / Rate of Change (GLU concentration after loading relative to before loading): sucrose loading 2.5 g/kg; for blood sugar level change by the sucrose loading (in words): STZ-treated control increased about 20%
Description: At 13 days after administration (Day 13), blood was collected from the rats, and plasma glucose (GLU) concentration was measured. […] From Day 14 (14 days after STZ administration), test articles shown in Table 1 were orally administered to the rats once a day for 9 days. At 23 days after STZ administration (Day 23), the GLU concentration was measured (previous value: GLU concentration before sucrose loading) (incidentally, the test articles were not administered on Day 23). […] Moreover, “N” represents the number of rats for determining the GLU concentration in the Table.

CC(C)OC(=O)C(C)(C)Oc1ccc(C(=O)c2ccc(Cl)cc2)cc1 [Fenofibrate]
GLU concentration before loading: 4.26 ± 0.55 g/L
GLU concentration after loading: 4.78 ± 0.34 g/L

CN(C)C(=N)N=C(N)N [Metformin]
GLU concentration before loading: 4.57 ± 0.36 g/L
GLU concentration after loading: 5.41 ± 0.38 g/L
blood sugar level change by the sucrose loading (in words): increased
Rate of Change (GLU concentration after loading relative to before loading): 118.4%

OCC(CO)N[C@H]1C[C@](O)(CO)[C@@H](O)[C@H](O)[C@H]1O [Voglibose]
GLU concentration before loading: 4.30 ± 0.47 g/L
GLU concentration after loading: 4.50 ± 0.42 g/L
blood sugar level change by the sucrose loading (in words): inhibited
Rate of Change (GLU concentration after loading relative to before loading): 104.7%

Source: patent publication US20070197602A1, “Combined pharmaceutical composition” (priority 2004, published 2007)
